Measured values taken from patent US8372967B2, “Compounds and methods for modulating expression of GCCR” (Isis Pharmaceuticals, Inc., priority 2006, dated 2013).
Strand notation (5' to 3'): a small letter for the sugar, then the base; units joined by * are phosphorothioate-linked, units joined directly phosphodiester-linked; [ ] holds rarer units or linkages, { } end groups; capitals alone tell only the bases. e = 2'-O-(2-methoxyethyl) (MOE); [5mC] = 5-methylcytosine; d = 2'-deoxy (DNA)

Tests used:
[1] = system: DGAT2 mRNA; assay: Antisense inhibition of DGAT2 in A10 cells, 75 nM (Table 81); format: cell-based, rat; conditions: approximately 24 hours
Description: Short antisense compounds targeted to a DGAT2 nucleic acid were tested for their effects on DGAT2 mRNA in vitro. Cultured A10 cells in a 96-well plate were treated with 75 nM of short antisense compound. After a treatment period of approximately 24 hours, RNA was isolated from the cells and DGAT2 mRNA levels were measured by quantitative real-time PCR, as described herein. DGAT2 mRNA levels were adjusted according to total RNA content as measured by RIBOGREEN®. Results are presented as percent inhibition of DGAT2, relative to untreated control cells in Table 81.

[2] = system: rat DGAT2 mRNA; assay: Dose-dependent inhibition of DGAT2 in A10 cells (Tables 82, 83); format: cell-based
Description: Additional short antisense compounds targeted to DGAT2 mRNA were tested in vitro in a dose-response experiment. A10 cells were prepared as described above and treated with 6.25, 12.5, 25.0, 50.0, 100.0, and 200.0 nM short antisense compounds to determine if DGAT2 inhibition occurs in a dose-dependent manner. […] Results are presented as percent inhibition, relative to untreated control cells.
Additional short antisense compounds targeted to DGAT2 mRNA were tested in vitro. A10 cells were prepared as described above and treated with 0.62, 1.85, 5.56, 16.67, 50.0, and 150.0 nM short antisense compounds to determine if DGAT2 inhibition occurs in a dose-dependent manner. DGAT2 mRNA was measured using quantitative real-time PCR, as described herein. […] Results are presented as percent inhibition of rat DGAT2, relative to untreated control cells.

Which “% Control” value [1] does the source give for “372491 (antisense eA*e[5mC]*eA*dT*dG*dA*dG*dG*dA*dT*dG*dA*d[5mC]*eA*e[5mC]*eT) [compound 372491]” here?
Its value is 80 % Control.

Which results are given for “372500 (antisense eG*eT*eG*dT*dG*dT*d[5mC]*dT*dT*d[5mC]*dA*d[5mC]*d[5mC]*eA*eG*e[5mC]) [compound 372500]”?
% Control [1]: 16 % Control; percent inhibition of rat DGAT2 ([2]; 0.62 nM (Table 83)): 0%; percent inhibition of rat DGAT2 ([2]; 1.85 nM (Table 83)): 0%; percent inhibition of rat DGAT2 ([2]; 5.56 nM (Table 83)): 0%; percent inhibition of rat DGAT2 ([2]; 16.67 nM (Table 83)): 18%; percent inhibition of rat DGAT2 ([2]; 50 nM (Table 83)): 64%; percent inhibition of rat DGAT2 ([2]; 150 nM (Table 83)): 88%

Which results are given for “372501 (antisense eT*eT*eG*dT*dG*dT*dG*dT*d[5mC]*dT*dT*d[5mC]*dA*e[5mC]*e[5mC]*eA) [compound 372501]”?
% Control [1]: 28 % Control; percent inhibition of rat DGAT2 ([2]; 0.62 nM (Table 83)): 1%; percent inhibition of rat DGAT2 ([2]; 1.85 nM (Table 83)): 5%; percent inhibition of rat DGAT2 ([2]; 5.56 nM (Table 83)): 10%; percent inhibition of rat DGAT2 ([2]; 16.67 nM (Table 83)): 11%; percent inhibition of rat DGAT2 ([2]; 50 nM (Table 83)): 25%; percent inhibition of rat DGAT2 ([2]; 150 nM (Table 83)): 68%
